In US8044079B2, “Substituted oxindole derivatives, medicaments containing said derivatives and use thereof” (Abbott GmbH & Co. KG, priority 2005, dated 2011):

Each compound was assayed against T1, human vasopressin V1b receptor (Homo sapiens, UniProt P47901) (assay: Vasopressin V1b receptor binding test). Details: membranes of CHO-K1 cells with human V1b receptor, displacement of 1.5 nM 3H-AVP; for compounds with more than one stereogenic center the diastereomer with greater affinity.
T1 construct: expressed in transfected cells; host or cells: CHO-K1 (cell line hV1b_3H2_CHO), membrane preparation
T1 sequence (P47901 1-424): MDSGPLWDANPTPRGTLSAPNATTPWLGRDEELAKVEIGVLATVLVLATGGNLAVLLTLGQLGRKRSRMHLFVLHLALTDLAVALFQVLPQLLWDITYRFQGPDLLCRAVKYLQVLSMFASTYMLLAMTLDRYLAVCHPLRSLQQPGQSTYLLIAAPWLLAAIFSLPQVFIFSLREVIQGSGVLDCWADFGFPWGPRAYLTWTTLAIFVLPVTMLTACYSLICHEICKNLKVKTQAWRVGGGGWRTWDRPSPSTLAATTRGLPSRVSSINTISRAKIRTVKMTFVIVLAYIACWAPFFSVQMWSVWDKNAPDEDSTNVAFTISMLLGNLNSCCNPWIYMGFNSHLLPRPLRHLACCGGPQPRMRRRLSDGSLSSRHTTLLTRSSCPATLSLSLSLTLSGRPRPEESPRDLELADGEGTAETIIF
Protocol: Vasopressin V1b Receptor Binding Test:
The test substances were dissolved at a concentration of 10^−2 M in DMSO, and were further diluted to 5×10^−4 M to 5×10^−9 M in DMSO. This DMSO predilution series was diluted 1:10 with test buffer. In the test assay the substance concentration was further diluted to 1:5 (2% DMSO in the assay).
The membrane pellet was homogenized again as described and centrifuged, and was then taken up in 50 mM tris-HCl at pH 7.4, homogenized, and frozen in aliquots at −190° C. and stored in liquid nitrogen.
The incubation buffer was 50 mM tris, 10 mM MgCl2, and 0.1% BSA at pH 7.4. […] The nonspecific binding was determined using 1 μM AVP (Bachem #H1780). All determinations were performed in triplicate. After incubation (60 minutes at room temperature), the free radioligand was filtered off by vacuum filtration (Skatron 7000 cell harvester) through Wathman GF/B fiberglass filter mats, and the filters were transferred to scintillation vessels. The liquid scintillation measurement was conducted in a Model 2000 or 2200CA TriCarb unit (Packard). The measured cpm was converted to dpm using a standard quench series.
The binding parameters were calculated by nonlinear regression in SAS.
The affinities of the compounds according to the invention for human vasopressin receptor V1b were measured according to the above test, and the affinity constants (Ki) were determined.
With “5-Chloro-1-(4-cyanobenzenesulfonyl)-3-{4-[(2-hydroxyethylamino)methyl]-2-methoxyphenyl}-3-((2S,4R)-4-hydroxy-2-oxazol-2-yl-pyrrolidin-1-yl)-2,3-dihydroindol-2-one [Example 196]” the Ki was 10 to 100 nM. With `COc1ccc(S(=O)(=O)N2C(=O)C(c3cc(CN4CCN(C)CC4)ccc3OC)(N3CCC[C@H]3c3ncco3)c3cc(Cl)ccc32)cc1` (single isomer, unassigned) [Example 1] the Ki was under 10 nM. Work on `COc1ccc(S(=O)(=O)N2C(=O)C(c3cc(CN4CCC4)ccc3OC)(N3CCC[C@H]3c3ncco3)c3cc(Cl)ccc32)cc1` (single isomer, unassigned) [Example 12] yielded a Ki of under 10 nM. For `COc1ccc(S(=O)(=O)N2C(=O)C(c3cc(CN4CCN(C)CC4)ccc3OC)(N3C[C@H](O)C[C@H]3c3ncco3)c3cc(C#N)ccc32)cc1` (single isomer, unassigned) [Example 149], the Ki was under 10 nM. `COc1ccc(S(=O)(=O)N2C(=O)C(c3cc(CO)ccc3OC)(N3CCC[C@H]3c3ncco3)c3cc(Cl)ccc32)cc1` (stereo partly drawn) [Example 2, 5-Chloro-3-(5-hydroxymethyl-2-methoxyphenyl)-1-(4-methoxybenzenesulfonyl)-3-((S)-2-oxazol-2-yl-pyrrolidin-1-yl)-1,3-dihydroindol-2-one] showed a Ki of 10 to 100 nM. `CNCc1ccc(OC)c(C2(N3CCC[C@H]3c3ncco3)C(=O)N(S(=O)(=O)c3ccc(OC)cc3)c3ccc(Cl)cc32)c1` (stereo partly drawn) [Example 3, 5-Chloro-1-(4-methoxybenzenesulfonyl)-3-(2-methoxy-5-methylaminomethylphenyl)-3-((S)-2-oxazol-2-yl-pyrrolidin-1-yl)-1,3-dihydroindol-2-one] gave a Ki of under 10 nM. Compound `COc1ccc(S(=O)(=O)N2C(=O)C(c3cc(CN(C)C)ccc3OC)(N3CCC[C@H]3c3ncco3)c3cc(Cl)ccc32)cc1` (stereo partly drawn) [Example 4, 5-Chloro-3-(5-dimethylaminomethyl-2-methoxyphenyl)-1-(4-methoxybenzenesulfonyl)-3-((S)-2-oxazol-2-yl-pyrrolidin-1-yl)-1,3-dihydroindol-2-one] has a Ki of under 10 nM. `CCNCc1ccc(OC)c(C2(N3CCC[C@H]3c3ncco3)C(=O)N(S(=O)(=O)c3ccc(OC)cc3)c3ccc(Cl)cc32)c1` (stereo partly drawn) [Example 5, 5-Chloro-3-(5-ethylaminomethyl-2-methoxyphenyl)-1-(4-methoxybenzenesulfonyl)-3-((S)-2-oxazol-2-yl-pyrrolidin-1-yl)-1,3-dihydroindol-2-one] was tested, and the Ki was under 10 nM. Work on `CCN(C)Cc1ccc(OC)c(C2(N3CCC[C@H]3c3ncco3)C(=O)N(S(=O)(=O)c3ccc(OC)cc3)c3ccc(Cl)cc32)c1` (stereo partly drawn) [Example 6, 5-Chloro-3-{5-[(ethylmethylamino)methyl]-2-methoxyphenyl}-1-(4-methoxybenzenesulfonyl)-3-((S)-2-oxazol-2-yl-pyrrolidin-1-yl)-1,3-dihydroindol-2-one] yielded a Ki of under 10 nM. Work on `CCN(CC)Cc1ccc(OC)c(C2(N3CCC[C@H]3c3ncco3)C(=O)N(S(=O)(=O)c3ccc(OC)cc3)c3ccc(Cl)cc32)c1` (stereo partly drawn) [Example 7, 5-Chloro-3-(5-diethylaminomethyl-2-methoxyphenyl)-1-(4-methoxybenzenesulfonyl)-3-((S)-2-oxazol-2-yl-pyrrolidin-1-yl)-1,3-dihydroindol-2-one] yielded a Ki of under 10 nM. `COc1ccc(S(=O)(=O)N2C(=O)C(c3cc(CNC(C)C)ccc3OC)(N3CCC[C@H]3c3ncco3)c3cc(Cl)ccc32)cc1` (stereo partly drawn) [Example 8, 5-Chloro-3-[5-(isopropylaminomethyl)-2-methoxyphenyl]-1-(4-methoxybenzenesulfonyl)-3-((S)-2-oxazol-2-yl-pyrrolidin-1-yl)-1,3-dihydroindol-2-one] showed a Ki of under 10 nM. For `COc1ccc(S(=O)(=O)N2C(=O)C(c3cc(CN(C)C(C)C)ccc3OC)(N3CCC[C@H]3c3ncco3)c3cc(Cl)ccc32)cc1` (stereo partly drawn) [Example 9, 5-Chloro-3-{5-[(isopropylmethylamino)methyl]-2-methoxyphenyl}-1-(4-methoxybenzenesulfonyl)-3-((S)-2-oxazol-2-yl-pyrrolidin-1-yl)-1,3-dihydroindol-2-one], the Ki was under 10 nM. With `COc1ccc(S(=O)(=O)N2C(=O)C(c3cc(CNCCO)ccc3OC)(N3CCC[C@H]3c3ncco3)c3cc(Cl)ccc32)cc1` (stereo partly drawn) [Example 10, 5-Chloro-3-{5-[(2-hydroxyethylamino)methyl]-2-methoxyphenyl}-1-(4-methoxybenzenesulfonyl)-3-((S)-2-oxazol-2-yl-pyrrolidin-1-yl)-1,3-dihydroindol-2-one] the Ki was under 10 nM. Compound `COc1ccc(S(=O)(=O)N2C(=O)C(c3cc(CN4CCNCC4)ccc3OC)(N3CCC[C@H]3c3ncco3)c3cc(Cl)ccc32)cc1` (stereo partly drawn) [Example 11, 5-Chloro-1-(4-methoxybenzenesulfonyl)-3-(2-methoxy-5-piperazin-1-ylmethylphenyl)-3-((S)-2-oxazol-2-yl-pyrrolidin-1-yl)-1,3-dihydroindol-2-one] has a Ki of under 10 nM. `COc1ccc(S(=O)(=O)N2C(=O)C(c3cc(CN4CCCC4)ccc3OC)(N3CCC[C@H]3c3ncco3)c3cc(Cl)ccc32)cc1` (stereo partly drawn) [Example 13, 5-Chloro-1-(4-methoxybenzenesulfonyl)-3-(2-methoxy-5-pyrrolidin-1-ylmethylphenyl)-3-((S)-2-oxazol-2-yl-pyrrolidin-1-yl)-1,3-dihydroindol-2-one] gave a Ki of under 10 nM. Work on `COc1ccc(S(=O)(=O)N2C(=O)C(c3cc(CN4CCCCC4)ccc3OC)(N3CCC[C@H]3c3ncco3)c3cc(Cl)ccc32)cc1` (stereo partly drawn) [Example 14, 5-Chloro-1-(4-methoxybenzenesulfonyl)-3-(2-methoxy-5-piperidin-1-ylmethylphenyl)-3-((S)-2-oxazol-2-yl-pyrrolidin-1-yl)-1,3-dihydroindol-2-one] yielded a Ki of under 10 nM. Work on `COc1ccc(S(=O)(=O)N2C(=O)C(c3ccc(CO)cc3OC)(N3CCC[C@H]3c3ncco3)c3cc(Cl)ccc32)cc1` (stereo partly drawn) [Example 15, 5-Chloro-3-(4-hydroxymethyl-2-methoxyphenyl)-1-(4-methoxybenzenesulfonyl)-3-((S)-2-oxazol-2-yl-pyrrolidin-1-yl)-1,3-dihydroindol-2-one] yielded a Ki of 10 to 100 nM. For `CNCc1ccc(C2(N3CCC[C@H]3c3ncco3)C(=O)N(S(=O)(=O)c3ccc(OC)cc3)c3ccc(Cl)cc32)c(OC)c1` (stereo partly drawn) [Example 16, 5-Chloro-1-(4-methoxybenzenesulfonyl)-3-(2-methoxy-4-methylaminomethylphenyl)-3-((S)-2-oxazol-2-yl-pyrrolidin-1-yl)-1,3-dihydroindol-2-one], the Ki was under 10 nM. Compound `COc1ccc(S(=O)(=O)N2C(=O)C(c3ccc(CN(C)C)cc3OC)(N3CCC[C@H]3c3ncco3)c3cc(Cl)ccc32)cc1` (stereo partly drawn) [Example 17, 5-Chloro-3-(4-dimethylaminomethyl-2-methoxyphenyl)-1-(4-methoxybenzenesulfonyl)-3-((S)-2-oxazol-2-yl-pyrrolidin-1-yl)-1,3-dihydroindol-2-one] has a Ki of under 10 nM. `CCN(C)Cc1ccc(C2(N3CCC[C@H]3c3ncco3)C(=O)N(S(=O)(=O)c3ccc(OC)cc3)c3ccc(Cl)cc32)c(OC)c1` (stereo partly drawn) [Example 18, 5-Chloro-3-{4-[(ethylmethylamino)methyl]-2-methoxyphenyl}-1-(4-methoxybenzenesulfonyl)-3-((S)-2-oxazol-2-yl-pyrrolidin-1-yl)-1,3-dihydroindol-2-one] showed a Ki of under 10 nM. For `CCN(CC)Cc1ccc(C2(N3CCC[C@H]3c3ncco3)C(=O)N(S(=O)(=O)c3ccc(OC)cc3)c3ccc(Cl)cc32)c(OC)c1` (stereo partly drawn) [Example 19, 5-Chloro-3-(4-diethylaminomethyl-2-methoxyphenyl)-1-(4-methoxybenzenesulfonyl)-3-((S)-2-oxazol-2-yl-pyrrolidin-1-yl)-1,3-dihydroindol-2-one], the Ki was under 10 nM. Compound `CCCNCc1ccc(C2(N3CCC[C@H]3c3ncco3)C(=O)N(S(=O)(=O)c3ccc(OC)cc3)c3ccc(Cl)cc32)c(OC)c1` (stereo partly drawn) [Example 20, 5-Chloro-1-(4-methoxybenzenesulfonyl)-3-(2-methoxy-4-propylaminomethylphenyl)-3-((S)-2-oxazol-2-yl-pyrrolidin-1-yl)-1,3-dihydroindol-2-one] has a Ki of under 10 nM. With `COc1ccc(S(=O)(=O)N2C(=O)C(c3ccc(CN(C)C(C)C)cc3OC)(N3CCC[C@H]3c3ncco3)c3cc(Cl)ccc32)cc1` (stereo partly drawn) [Example 21, 5-Chloro-3-{4-[(isopropylmethylamino)methyl]-2-methoxyphenyl}-1-(4-methoxybenzenesulfonyl)-3-((S)-2-oxazol-2-yl-pyrrolidin-1-yl)-1,3-dihydroindol-2-one] the Ki was under 10 nM.
